Experiment [1] is filed under the species Cavia porcellus. Put plainly: Integrated vasodilating potency (the product of compound-induced maximum percent decrease in the perfusion pressure and the duration of the effect in minutes at 100 ug (ia); Coronary vasoconstricting action). The format is functional.
For experiment [2], the system named is Rattus norvegicus. Put plainly: Hypotensive index (HI) measured as the area under the time-hypotensive response curve for 6-h period at 30 mg/kg, po. Type of experiment: functional.
The species named for experiment [3] is Cavia porcellus. The experiment in a line: Integrated vasodilating potency is the product of compound-induced maximum percent decrease in the perfusion pressure and the duration of the effect in minutes at 100 ug (ia). The format is functional.
In experiment [4] the test system is Canis familiaris. Put plainly: Time taken for increase in coronary blood flow in anesthetized dogs after intravenous administration at 0.1 mg/kg. Type of experiment: functional, Canis lupus familiaris, Blood/Heart.
The test system of experiment [5] is Canis familiaris. The experiment in a line: Time taken for increase in coronary blood flow in anesthetized dogs after intravenous administration at 0.3 mg/kg. The format is functional, Canis lupus familiaris, Blood/Heart.
For experiment [6], the system named is Canis familiaris. The experiment in a line: Time taken for increase in coronary blood flow in anesthetized dogs after intravenous administration at 1 mg/kg. Type of experiment: functional, Canis lupus familiaris, Blood/Heart.
For experiment [7], the system named is Canis familiaris. Put plainly: Percent increase in coronary blood flow in anesthetized dogs after intravenous administration at 0.3 mg/kg. The format is functional, Canis lupus familiaris, Artery.
The subject of experiment [8] is Canis familiaris. The experiment in a line: Percent increase in coronary blood flow in anesthetized dogs after intravenous administration at 1 mg/kg (p<0.05). Type of experiment: functional, Canis lupus familiaris, Artery.
Experiment [9] deals with Canis familiaris. Put plainly: Percent increase in coronary blood flow in anesthetized dogs after intravenous administration at 0.1 mg/kg. The format is functional, Canis lupus familiaris, Artery.
For experiment [10], the system named is Canis familiaris. Put plainly: Increase in coronary blood flow in anesthetized dogs was measured relative to trapidil (1 mg/kg) after intravenous administration of 0.1 mg/kg. Type of experiment: functional, Canis lupus familiaris, Artery.
Experiment [11] relates to Canis familiaris. The experiment in a line: Increase in coronary blood flow in anesthetized dogs was measured relative to trapidil (1 mg/kg) after intravenous administration of 0.3 mg/kg. Type of experiment: functional, Canis lupus familiaris, Artery.
In experiment [12] the test system is Canis familiaris. Put plainly: Increase in coronary blood flow in anesthetized dogs was measured relative to trapidil (1 mg/kg) after intravenous administration of 1 mg/kg. The format is functional, Canis lupus familiaris, Artery.
Experiment [13] deals with Canis familiaris. The experiment in a line: Maximum percent decrease in mean blood pressure in anesthetized dogs after intravenous administration at 0.3 mg/kg. The format is functional, Canis lupus familiaris.
Experiment [14] has as its system Canis familiaris. The experiment in a line: Maximum percent decrease in mean blood pressure in anesthetized dogs after intravenous administration at 1 mg/kg. Type of experiment: functional, Canis lupus familiaris.
For experiment [15], the species on record is Cavia porcellus. The experiment in a line: Integrated vasodilating potency (IVP) (the product of compound-induced maximum percent decrease in the perfusion pressure and the duration of the effect in minutes at 100 ug (ia)). Type of experiment: functional.
Experiment [16] relates to Canis familiaris. The experiment in a line: Maximum percent decrease in mean blood pressure in anesthetized dogs after intravenous administration at 0.1 mg/kg. Type of experiment: functional, Canis lupus familiaris.

Data on 17 molecules can be found in ChEMBL document CHEMBL1121497, “Studies on cardiovascular agents. 6. Synthesis and coronary vasodilating and antihypertensive activities of 1,2,4-triazolo[1,5-a]pyrimidines fused to heterocyclic systems” (1980).

`Cc1nc2nc(-c3ccccc3)nn2c2c1CCN2C(C)(C)C`: in experiment [1], the IVP result is recorded as “Coronary vasoconstricting action”. In [2], the HI was found to be 0.

`CCCCCCCN1CCc2c(C)nc3ncnn3c21` came in with an IVP in experiment [3] of 184. Besides, the HI in experiment [2] worked out at 30.

For the molecule `Cc1nc2nc(-c3ccccc3)nn2c2c1CCN2Cc1ccccc1F`, in experiment [1], the IVP result was “Coronary vasoconstricting action”. The HI in [2] is recorded as 8.

On to `Cc1nc2ncnn2c2c1CCN2C(C)(C)C` [BUMEPIDIL], for which the results for the Duration in experiment [4], in [5] and in experiment [6] were 4.3 min, 9.3 min and 10.6 min, respectively. For the same molecule, the Max in [7] worked out at 132.3%; in experiment [8], 219.8%; in experiment [9], 34.7%. Further, the Relative potency in experiment [10] is reported as 0.7; in experiment [11], 3.8; in experiment [12] it was 8.4. Further, the Decrease was -11.7% in experiment [13], -32.3% in [14] and -3.3% in experiment [16]. This molecule also registered an IVP in [15] of 815. Further, in [2], the HI is 181.

Regarding `Cc1nc2nc(-c3ccc(Cl)cc3)nn2c2c1CCN2C(C)C`, the IVP result in experiment [1] was “Coronary vasoconstricting action”. Besides, the HI in experiment [2] was 0.

As to `Cc1nc2ncnn2c2c1CCN2CC(C)O` (stereo unspecified), in [1], the IVP result is “Coronary vasoconstricting action”. The HI in experiment [2] is 5.

Consider `Cc1nc2ncnn2c2c1CCN2C1CCCCCCC1`, for which, in [1], the IVP entry was “Coronary vasoconstricting action”. In [2], this molecule displayed an HI of 15.

With `Cc1nc2ncnn2c2c1CCN2CC(O)CO` (stereo unspecified), the IVP result in experiment [1] was “Coronary vasoconstricting action”. The molecule further registered an HI in experiment [2] of 15.

For the molecule `COc1cc(-c2nc3nc(C)c4c(n3n2)N(Cc2ccccc2Cl)CC4)cc(OC)c1OC`, the IVP result in experiment [1] is “Coronary vasoconstricting action”. The same molecule gave an HI in experiment [2] of 0.

For the molecule `COc1ccc(-c2nc3nc(C)c4c(n3n2)N(C(C)(C)C)CC4)cc1`, the IVP entry in experiment [1] is on record as “Coronary vasoconstricting action”. The molecule also returned an HI in [2] of 13.

Take `Cc1nc2nc(-c3ccccc3)nn2c2c1CCN2C(C)C`: the IVP result in experiment [1] is listed as “Coronary vasoconstricting action”. Moreover, in [2], the HI stood at 0.

Regarding `Cc1nc2nc(-c3ccc(Cl)cc3)nn2c2c1CCN2CCCN1CCCC1`, the IVP entry in experiment [1] is listed as “Coronary vasoconstricting action”. The HI in [2] came out at 0.

In the case of `Cc1nc2nc(-c3ccc(Cl)cc3)nn2c2c1CCN2C(C)(C)C`, the IVP entry in experiment [1] is on record as “Coronary vasoconstricting action”. The molecule also showed an HI in experiment [2] of 10.

On to `Cc1nc2ncnn2c2c1CCCN2Cc1ccccc1F`, for which the IVP result in [1] is reported as “Coronary vasoconstricting action”. The HI in [2] is on record as 0.

`COc1ccc(-c2nc3nc(C)c4c(n3n2)N(C(C)C)CC4)cc1`: the IVP entry in experiment [1] is recorded as “Coronary vasoconstricting action”. The same molecule gave an HI in experiment [2] of 0.

Consider `Cc1nc2ncnn2c2c1CCCN2Cc1ccccc1Cl`, for which the IVP result in [1] is on record as “Coronary vasoconstricting action”. The HI in [2] amounted to 10.

Consider `CCCCN1CCc2c(C)nc3nc(-c4ccccc4)nn3c21`, for which the IVP result in experiment [1] was “Coronary vasoconstricting action”. In addition, the HI in [2] was determined as 10.
